Results: US10653698B2, “Methods of improving myocardial performance in Fontan patients using udenafil compositions” (priority 2014, dated 2020)

Assay: clinical
Details: human, in vivo
Method: The population PK analysis was performed using a non-linear mixed effects modeling approach. This approach estimates the typical value of parameters and their variances. It was assumed subjects were at steady state (SS): at a time (t) after dose (D) given at time tD after repeated administration of dose D given at interval τ (t≥tD) as PK samples/udenafil concentrations were taken on study day 6.
As only the drug administration at Day 6 was supplied, it is expected that the subjects have taken the drug at regular intervals at home; due to this a steady state flag will be tested to account for the doses which are not available. As stated, it is assumed steady state has been reached by Day 6, as previous studies of udenafil have stated that during multiple dosing, steady state is reached in 5 days, with apparently little additional accumulation occurring after dosing for 7 days. If there were missed doses during the study period prior to the PK sampling, this can affect the ability to determine whether steady state could be assumed or not for the PK profile. If two or more additional drug administration dates and times were available prior to the visit where the PK samples were taken, then a much better dosing profile could be used for analysis.
One- and two-compartment models were explored (based on literature and available data). The equation for the Input model for the drug described oral absorption. For the one-compartment model, the following equation may apply to the model:
The robustness of the final model was assessed in PDxPOP® 5 by bootstrap re-sampling (n=1000). Values obtained with the bootstrap (based on all runs with successful minimization) were compared to the parameter estimates from the final model. To evaluate the accuracy of the model predictions, normalized prediction distribution errors (NPDE) was performed.
One- and two-compartment models with oral absorption input were evaluated using initial estimates obtained from the literature as described above, and were explored to determine the potential structure of the model. The models were evaluated during the model building process by using objective function value, level of statistical significance, goodness of fit plots, and standard error.
The only covariate available for analysis was current body weight. Weight was tested as a fixed effect on typical values for clearance and volume of distribution (e.g., weight has a “fixed effect” on clearance). Median weight in the dataset was 65.3 kg. […]
During the model building process, a number of residual error models were evaluated. […]
Bootstrap re-sampling was undertaken to compare the parameter estimates from the final model with those determined following 1000 bootstrap runs. […]

In the case of `CCCOc1ccc(S(=O)(=O)NCCC2CCCN2C)cc1-c1nc2c(CCC)nn(C)c2c(=O)[nH]1` (stereo not shown) [udenafil], the Vd/F is reported as 74 L, the “apparent clearance (CL/F/70 kg)” value is reported as 36 L/h and the inter-compartmental clearance (Q/F) is reported as 21.1 L/h. For the same molecule, the “peripheral volume of distribution (V3/F)” value was 181 L.
